From patent US11807606B2, “Sulfonamide derivatives for protein degradation” (DANA-FARBER CANCER INSTITUTE, INC., priority 2018, dated 2023)

Target: DCAF15 and RRM2 domain in RBM39 (Homo sapiens (Human), UniProt Q14498+Q66K64)
Experiment: TR-FRET biochemical assay, DCAF15 activity (recruitment of RBM39 RRM2 domain to DCAF15)
Type: binding
Conditions: TR-FRET 520/490 nm ratio; biotinylated DCAF15 200 nM, Bodipy-FL RBM39 RRM2 200 nM, Tb-streptavidin 2 nM
Protocol: Increasing concentrations of compounds were added to pre-mixed biotinylated DCAF15 at 200 nM, Bodipy-FL-labelled RRM2 domain in RBM39 at 200 nM, and terbium (Tb)-coupled streptavidin at 2 nM (Invitrogen) in 384-well microplates in a buffer containing 50 mM Tris pH 7.5, 100 mM NaCl, 0.1% pluronic acid and 2% DMSO. Before TR-FRET measurements were conducted, the reactions were incubated for 15 min at room temperature. After excitation of terbium (Tb) fluorescence at 337 nm, emission at 490 nm (Tb) and 520 nm (Bodipy-FL) were recorded with a 70 μs delay to reduce background fluorescence and the reaction was followed over 1 h by recording 60 technical replicates of each data point using a PHERAstar FS microplate reader (BMG Labtech). The TR-FRET signal of each data point was extracted by calculating the 520/490 nm ratio. Data were analyzed with GraphPad Prism 7.

Sequence of DCAF15 and RRM2 domain in RBM39 (Q66K64 whole entry, the tested form may be a part): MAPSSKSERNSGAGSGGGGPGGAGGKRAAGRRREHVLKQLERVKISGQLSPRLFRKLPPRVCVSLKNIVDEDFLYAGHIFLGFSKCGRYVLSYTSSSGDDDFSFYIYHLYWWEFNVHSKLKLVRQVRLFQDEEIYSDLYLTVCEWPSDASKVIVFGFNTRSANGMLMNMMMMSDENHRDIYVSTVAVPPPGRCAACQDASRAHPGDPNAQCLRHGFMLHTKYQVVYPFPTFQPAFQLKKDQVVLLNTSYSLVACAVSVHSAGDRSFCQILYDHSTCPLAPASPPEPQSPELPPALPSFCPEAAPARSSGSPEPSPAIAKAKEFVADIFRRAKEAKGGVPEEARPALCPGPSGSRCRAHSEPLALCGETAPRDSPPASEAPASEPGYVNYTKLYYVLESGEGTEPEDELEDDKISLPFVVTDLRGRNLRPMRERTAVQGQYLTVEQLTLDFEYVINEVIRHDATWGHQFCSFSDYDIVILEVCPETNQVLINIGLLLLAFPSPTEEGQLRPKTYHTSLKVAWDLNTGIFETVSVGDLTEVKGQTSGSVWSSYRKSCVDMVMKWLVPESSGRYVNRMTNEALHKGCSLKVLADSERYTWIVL
Sequence of DCAF15 and RRM2 domain in RBM39 (Q14498 250-328): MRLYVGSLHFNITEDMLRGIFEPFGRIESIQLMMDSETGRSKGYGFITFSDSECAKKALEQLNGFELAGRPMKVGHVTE
Sequence of DCAF15 and RRM2 domain in RBM39 (Q16531 whole entry partner, the tested form may be a part): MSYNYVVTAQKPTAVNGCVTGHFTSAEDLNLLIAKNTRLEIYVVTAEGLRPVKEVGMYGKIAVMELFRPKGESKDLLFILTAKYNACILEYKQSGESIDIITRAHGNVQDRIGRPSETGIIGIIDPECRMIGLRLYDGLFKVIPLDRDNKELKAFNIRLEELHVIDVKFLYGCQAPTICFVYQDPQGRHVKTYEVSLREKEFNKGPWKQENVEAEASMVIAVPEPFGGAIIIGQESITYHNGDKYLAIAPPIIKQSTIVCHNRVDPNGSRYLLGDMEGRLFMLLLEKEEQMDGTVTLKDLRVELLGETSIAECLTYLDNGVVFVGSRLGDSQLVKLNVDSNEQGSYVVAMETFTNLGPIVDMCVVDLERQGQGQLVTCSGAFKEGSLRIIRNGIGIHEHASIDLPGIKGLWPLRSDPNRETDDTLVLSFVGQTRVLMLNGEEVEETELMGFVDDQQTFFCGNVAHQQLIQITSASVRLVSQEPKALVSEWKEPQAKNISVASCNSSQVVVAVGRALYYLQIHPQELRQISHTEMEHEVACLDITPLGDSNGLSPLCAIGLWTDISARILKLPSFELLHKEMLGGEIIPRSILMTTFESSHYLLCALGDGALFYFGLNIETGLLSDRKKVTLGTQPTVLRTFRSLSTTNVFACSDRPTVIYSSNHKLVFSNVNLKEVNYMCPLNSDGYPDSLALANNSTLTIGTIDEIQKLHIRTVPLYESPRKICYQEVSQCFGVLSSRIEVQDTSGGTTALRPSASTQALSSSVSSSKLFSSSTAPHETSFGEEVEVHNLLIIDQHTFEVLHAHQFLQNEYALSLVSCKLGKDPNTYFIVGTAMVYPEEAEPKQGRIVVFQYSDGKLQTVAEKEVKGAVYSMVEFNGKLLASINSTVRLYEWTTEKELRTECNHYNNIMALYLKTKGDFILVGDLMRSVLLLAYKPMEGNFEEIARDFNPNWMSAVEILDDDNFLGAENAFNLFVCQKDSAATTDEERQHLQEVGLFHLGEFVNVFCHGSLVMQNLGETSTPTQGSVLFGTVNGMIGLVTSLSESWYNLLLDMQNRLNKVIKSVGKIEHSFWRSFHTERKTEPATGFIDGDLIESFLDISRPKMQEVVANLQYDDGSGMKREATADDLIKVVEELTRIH

SMILES | EC50
Cc1cccc(S(=O)(=O)Nc2ccc(C)c3c(C#N)c[nH]c23)c1 | 1 to 10 µM
Cc1ccc(NS(=O)(=O)c2cccc(C(F)(F)F)c2)c2[nH]cc(C#N)c12 | 1 to 10 µM
Cc1ccc(NS(=O)(=O)c2cccc([N+](=O)[O-])c2)c2[nH]cc(C#N)c12 | 1 to 10 µM
Cc1ccc(NS(=O)(=O)c2cccc(N)c2)c2[nH]cc(C#N)c12 | 1 to 10 µM
CNC(=O)c1cccc(S(=O)(=O)Nc2ccc(C)c3c(C#N)c[nH]c23)c1 | 1 to 10 µM
COC(=O)c1cccc(S(=O)(=O)Nc2ccc(C)c3c(C#N)c[nH]c23)c1 | 1 to 10 µM
Cc1ccc(NS(=O)(=O)c2ccc(C#N)cc2)c2[nH]cc(C#N)c12 | 1 to 10 µM
Cc1ccc(NS(=O)(=O)c2ccccc2[N+](=O)[O-])c2[nH]cc(C#N)c12 | > 10 µM
Cc1ccc(NS(=O)(=O)c2ccc(F)cc2F)c2[nH]cc(C#N)c12 | 1 to 10 µM
COC(=O)c1ccc(S(=O)(=O)Nc2ccc(C)c3c(C#N)c[nH]c23)cc1 | 1 to 10 µM
Cc1ccc(NS(=O)(=O)c2ccc([N+](=O)[O-])cc2)c2[nH]cc(C#N)c12 | 1 to 10 µM
Cc1ccc(NS(=O)(=O)c2cccc(C#N)c2)c2[nH]cc(C=O)c12 | 1 to 10 µM
Cc1ccc(NS(=O)(=O)c2cccc(C#N)c2)c2[nH]ccc12 | > 10 µM
CNC(=O)c1c[nH]c2c(NS(=O)(=O)c3cccc(C#N)c3)ccc(C)c12 | > 10 µM
N#Cc1cccc(S(=O)(=O)Nc2ccc(-c3ccccc3)c3c(C#N)c[nH]c23)c1 | > 10 µM
O=S(=O)(Nc1ncnc2[nH]ccc12)c1ccccc1 | > 10 µM
Cc1ccc(NS(=O)(=O)c2ccccc2OC(F)(F)F)c2[nH]cc(C#N)c12 | > 10 µM
Cc1ccccc1S(=O)(=O)Nc1ccc(C)c2c(C#N)c[nH]c12 | > 10 µM
Cc1ccc(NS(=O)(=O)c2ccccc2C(F)(F)F)c2[nH]cc(C#N)c12 | > 10 µM
Cc1ccc(NS(=O)(=O)c2ccccc2Br)c2[nH]cc(C#N)c12 | > 10 µM
Cc1ccc(NS(=O)(=O)c2ccccc2)c2[nH]cc(C#N)c12 | 1 to 10 µM
Cc1ccc(NS(C)(=O)=O)c2[nH]cc(C#N)c12 | > 10 µM

SMILES | EC50
CC(=O)Nc1ccc(C)c2c(C#N)c[nH]c12 | > 10 µM
N#Cc1cccc(S(=O)(=O)Nc2cc(Cl)cc3cc[nH]c23)c1 | > 10 µM
N#Cc1cccc(S(=O)(=O)Nc2cc(F)cc3c2NC(=O)C3)c1 | > 10 µM
Cc1ccc(NC(=O)c2cccc(C#N)c2)c2[nH]cc(C#N)c12 | > 10 µM
Cc1ccc(NS(=O)(=O)c2cccc(C#N)c2)c2[nH]cc(Cl)c12 | 1 to 10 µM
Cc1ccc(NS(=O)(=O)c2cccc(C#N)c2)c2[nH]cc(Br)c12 | 1 to 10 µM
N#Cc1cccc(S(=O)(=O)Nc2cc(Cl)cc3c(Br)c[nH]c23)c1 | > 10 µM
N#Cc1cccc(S(=O)(=O)Nc2ccc3c(C#N)c[nH]c3c2)c1 | > 10 µM
N#Cc1cccc(S(=O)(=O)Nc2cccc3c(C#N)c[nH]c23)c1 | > 10 µM
CCOC(=O)c1cc2cc(NS(=O)(=O)c3cccc(C#N)c3)ccc2[nH]1 | > 10 µM
N#Cc1cccc(S(=O)(=O)Nc2ncnc3[nH]ccc23)c1 | > 10 µM
N#Cc1cccc(S(=O)(=O)Nc2ncnc3[nH]cc(Cl)c23)c1 | > 10 µM
N#Cc1cccc(S(=O)(=O)Nc2cccn3ncnc23)c1 | > 10 µM
N#Cc1cccc(S(=O)(=O)Nc2cc(-c3ccccc3)cc3c(C#N)c[nH]c23)c1 | > 10 µM
N#Cc1cccc(S(=O)(=O)Nc2cc(-c3ccccc3)cc3cc[nH]c23)c1 | > 10 µM
COCCNc1ccc(S(=O)(=O)Nc2ccc(C)c3c(C#N)c[nH]c23)cc1C#N | 1 to 10 µM
N#Cc1cccc(S(=O)(=O)Nc2ccc(-c3ccccc3)c3cc[nH]c23)c1 | > 10 µM
N#Cc1cccc(S(=O)(=O)Nc2cccc3c2CNC3=O)c1 | > 10 µM
CCOC(=O)c1cc2c(C)ccc(NS(=O)(=O)c3cccc(C#N)c3)c2[nH]1 | > 10 µM
N#Cc1cccc(S(=O)(=O)Nc2cccc(C(N)=O)c2N)c1 | > 10 µM
N#Cc1cccc(S(=O)(=O)Nc2ccc3[nH]cc(C#N)c3c2)c1 | > 10 µM
N#Cc1cccc(S(=O)(=O)Nc2cccc3c(Cl)n[nH]c23)c1 | > 10 µM
